According to patent publication US20180303817A1, “THERAPEUTIC AGENT FOR BREAST CANCER” (Eisai R&D Management Co., Ltd., priority 2015, published 2018):

Legend:
[1] = Changes in body weight over time in MFM223 tumor-bearing nude mice; type: in vivo, nude mice (BALB/cAJcl-nu/nu, female)
Experimental: (§1) Four nude mice (BALB/cAJcl-nu/nu, female, CLEA Japan, Inc.) per group were used to evaluate an anti-tumor effect when compound A was administered.
(§2) Compound A as obtained in Production Example 1 was dissolved at a concentration of 0.625 mg/mL, or 2.5 mg/mL in purified water.
(§3) Then, the solution was orally administered at a dose of 20 mL/kg, i.e., 12.5 mg/kg or 50 mg/kg, once a day for 12 days to the mice of each group. Purified water was administered at 20 mL/kg to the control group.
(§4) On day 3, 7, and 12 after initiation of the administration, the tumor volume of each mouse was measured. In addition, Table 2 and FIG. 2 show changes in body weight over time.

[2] = system: human-derived breast cancer cell line MFM223; experiment: Anti-tumor effect of compound A in nude mice with subcutaneously transplanted human breast cancer cell line MFM223 (tumor volume); type: in vivo, nude mice (BALB/cAJcl-nu/nu, female)
Experimental: as §1
A human-derived breast cancer cell line MFM223 (ECACC) was subjected to preparatory conditioning. The MFM223 cells were suspended at a concentration of 2×10^8 cells/mL in HBSS (Wako Pure Chemical Industries, Ltd.). To the resulting suspension was added an equal volume of Matrigel™ matrix (Becton, Dickinson and Company, Japan), and the mixture was mixed sufficiently. Then, 0.1 mL of the mixture was subcutaneously transplanted into the right flank of each nude mouse (CAnN.Cg-Foxnlnu/Crlalj, female, Charles River Laboratories International, Inc.). During rearing, β-estradiol (Wako Pure Chemical Industries, Ltd.) prepared at a final concentration of 2.5 μg/mL in drinking water was orally administered. 46 Days after the transplantation, a tumor formed was resected and cut into small pieces. HBSS containing Type I collagenase (SIGMA) at a final concentration of 380 units/mL and Deoxyribonuclease I (SIGMA) at a final concentration of 160 K units/mL was added thereto, and the mixture was stirred at 37° C. After the mixture was made to pass through a 100-μm cell strainer (Falcon®) and centrifuged to collect the cells, those cells were cultured in 10% bovine serum-containing EMEM culture medium.
The cells as so obtained were suspended at a concentration of 1.4×10^8 cells/mL in 10% bovine serum-containing EMEM culture medium (Wako Pure Chemical Industries, Ltd.). To the resulting suspension was added an equal volume of Matrigel™ matrix (Becton, Dickinson and Company, Japan), and the resulting mixture was mixed sufficiently. Next, 0.1 mL of the mixture was subcutaneously transplanted into the right flank of each mouse, and then, the anti-tumor effect was evaluated.
20 Days after the transplantation, an electronic digital caliper (Digimatic™ Caliper; Mitutoyo Corporation) was used to measure the long and short diameters of a tumor of interest. The mice were grouped such that each group had substantially the same average of the tumor volumes. Note that each tumor volume was calculated by using the following equation:
Tumor Volume (mm^3)=Long Diameter (mm)×Short Diameter (mm)×Short Diameter (mm)/2.
as §2, §3, §4

[3] = 12.5 mg/kg orally once a day, Day 3
[4] = 12.5 mg/kg orally once a day, Day 7
[5] = 12.5 mg/kg orally once a day, Day 12
[6] = 50 mg/kg orally once a day, Day 3
[7] = 50 mg/kg orally once a day, Day 7
[8] = 50 mg/kg orally once a day, Day 12

With `CNC(=O)n1ccc2cc(Oc3ccnc(NC(=O)c4ccc(C5CCN(CCO)CC5)cc4)c3)c(OCCOC)cc21` [Compound A, 5-((2-(4-(1-(2-hydroxyethyl)piperidin-4-yl)benzamide)pyridin-4-yl)oxy)-6-(2-methoxyethoxy)-N-methyl-1H-indole-1-carboxamide 1.5 succinate] the “Changes in body weight over time” value ([1]; 12.5 mg/kg orally once a day, Day 0) was 21.1 g, the “Changes in body weight over time” value [1, 3] was 21.4 g and the “Changes in body weight over time” value [1, 4] was 22.6 g. For the same compound, the “Changes in body weight over time” value [1, 5] was 23.2 g, the “Changes in body weight over time” value ([1]; 50 mg/kg orally once a day, Day 0) was 21.5 g and the “Changes in body weight over time” value [1, 6] was 22.8 g. For the same compound, the “Changes in body weight over time” value [1, 7] was 23.8 g, the “Changes in body weight over time” value [1, 8] was 24.0 g and the “Changes in tumor volume over time” value ([2]; 12.5 mg/kg orally once a day, Day 0 (at grouping, before treatment effect)) was 151.6 mm^3. For the same compound, the “Changes in tumor volume over time” value [2, 3] was 139.0 mm^3, the “Changes in tumor volume over time” value [2, 4] was 143.8 mm^3 and the “Changes in tumor volume over time” value [2, 5] was 148.2 mm^3. The “Changes in tumor volume over time” value ([2]; 50 mg/kg orally once a day, Day 0 (at grouping, before treatment effect)) was 151.6 mm^3, the “Changes in tumor volume over time” value [2, 6] was 112.8 mm^3 and the “Changes in tumor volume over time” value [2, 7] was 99.3 mm^3. The “Changes in tumor volume over time” value [2, 8] was 87.2 mm^3.
